These results are taken from article PMC7982320 (Pharmacology Research & Perspectives, 2021).

What all share (format): in vitro ADME
Series [1] addresses CYP2C19 (Homo sapiens, UniProt P33261). The series is described as follows: CYP inhibition in pooled human liver microsomes, S-mephenytoin probe.
The target in series [2] is T1, human OATP1B3 (Homo sapiens, UniProt Q9NPD5).
T1 sequence (Q9NPD5 1-702): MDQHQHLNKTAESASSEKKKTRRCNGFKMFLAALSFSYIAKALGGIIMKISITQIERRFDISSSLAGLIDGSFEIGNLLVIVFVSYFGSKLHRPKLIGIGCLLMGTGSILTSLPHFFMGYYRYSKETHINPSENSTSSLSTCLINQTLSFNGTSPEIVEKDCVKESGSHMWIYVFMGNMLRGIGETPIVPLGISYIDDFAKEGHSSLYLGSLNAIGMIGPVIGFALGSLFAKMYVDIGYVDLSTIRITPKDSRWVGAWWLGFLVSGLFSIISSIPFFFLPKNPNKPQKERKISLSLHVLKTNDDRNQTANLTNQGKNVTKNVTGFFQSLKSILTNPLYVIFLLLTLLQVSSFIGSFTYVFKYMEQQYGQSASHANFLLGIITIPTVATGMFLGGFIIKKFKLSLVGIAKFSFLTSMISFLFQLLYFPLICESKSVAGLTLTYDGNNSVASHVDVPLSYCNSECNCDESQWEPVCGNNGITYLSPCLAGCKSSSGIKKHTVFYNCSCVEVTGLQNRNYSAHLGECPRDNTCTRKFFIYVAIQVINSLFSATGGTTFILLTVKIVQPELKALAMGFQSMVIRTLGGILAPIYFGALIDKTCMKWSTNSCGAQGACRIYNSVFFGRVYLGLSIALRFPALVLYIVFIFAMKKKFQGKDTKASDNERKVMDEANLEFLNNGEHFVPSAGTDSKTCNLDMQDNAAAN
The series is described as follows: Uptake transporter substrate assay. The note with it: OATP1B3 UPT; for Maximum fold accumulation over control: maximum seen at 1 µM and 20 min, n = 3.

The target in series [3] is CYP2B6 (Homo sapiens, UniProt P20813). The note with it: read-out: IC50, No preincubation; CYP2B6, pooled HLMs, n = 3.
For series [4], the target named is T2, human BCRP (Homo sapiens, UniProt Q9UNQ0).
T2 sequence (Q9UNQ0 1-655): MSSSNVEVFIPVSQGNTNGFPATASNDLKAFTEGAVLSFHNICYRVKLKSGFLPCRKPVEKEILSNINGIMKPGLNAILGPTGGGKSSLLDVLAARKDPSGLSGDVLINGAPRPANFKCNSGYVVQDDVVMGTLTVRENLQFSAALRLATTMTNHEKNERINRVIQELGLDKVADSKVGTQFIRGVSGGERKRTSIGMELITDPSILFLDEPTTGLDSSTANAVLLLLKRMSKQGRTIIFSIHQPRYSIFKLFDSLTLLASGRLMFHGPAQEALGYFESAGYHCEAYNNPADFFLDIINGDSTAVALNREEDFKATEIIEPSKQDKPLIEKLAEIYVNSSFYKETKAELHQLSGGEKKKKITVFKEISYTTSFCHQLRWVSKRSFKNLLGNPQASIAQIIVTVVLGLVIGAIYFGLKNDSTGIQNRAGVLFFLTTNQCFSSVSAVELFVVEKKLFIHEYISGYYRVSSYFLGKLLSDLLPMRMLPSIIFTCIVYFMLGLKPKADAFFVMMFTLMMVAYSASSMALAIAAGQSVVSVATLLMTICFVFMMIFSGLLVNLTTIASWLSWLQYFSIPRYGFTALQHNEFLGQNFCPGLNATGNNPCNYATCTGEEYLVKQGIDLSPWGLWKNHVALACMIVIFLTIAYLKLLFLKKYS
The series is described as follows: Transporter substrate assay, MDCKII‐BCRP monolayer bidirectional transport. The note with it: BCRP ML; for Maximum net ER: maximum seen at 2.5 µM, n = 3.

Series [5] deals with CYP2C8 (Homo sapiens, UniProt P10632). In words: CYP inhibition in pooled human liver microsomes, paclitaxel probe. The conditions noted are these: read-out: IC50, No preincubation; CYP2C8, pooled HLMs, n = 3. For orientation: Liver microsomes are a subcellular fraction often used to study metabolism.
Series [6] has as its target CYP1A2 (Homo sapiens, UniProt P05177). The conditions noted are these: read-out: IC50, No preincubation; CYP1A2, pooled HLMs, n = 3.
Series [7] has as its target human MDR1 (Homo sapiens, UniProt P08183). The series is described as follows: Transporter substrate assay, MDCKII‐MDR1 monolayer bidirectional transport. The note with it: MDR1 ML; for Maximum net ER: maximum seen at 1 and 5 µM, n = 3.
Series [8] concerns the target T3, human OCT2 (Homo sapiens, UniProt O15244).
T3 sequence (O15244 1-555): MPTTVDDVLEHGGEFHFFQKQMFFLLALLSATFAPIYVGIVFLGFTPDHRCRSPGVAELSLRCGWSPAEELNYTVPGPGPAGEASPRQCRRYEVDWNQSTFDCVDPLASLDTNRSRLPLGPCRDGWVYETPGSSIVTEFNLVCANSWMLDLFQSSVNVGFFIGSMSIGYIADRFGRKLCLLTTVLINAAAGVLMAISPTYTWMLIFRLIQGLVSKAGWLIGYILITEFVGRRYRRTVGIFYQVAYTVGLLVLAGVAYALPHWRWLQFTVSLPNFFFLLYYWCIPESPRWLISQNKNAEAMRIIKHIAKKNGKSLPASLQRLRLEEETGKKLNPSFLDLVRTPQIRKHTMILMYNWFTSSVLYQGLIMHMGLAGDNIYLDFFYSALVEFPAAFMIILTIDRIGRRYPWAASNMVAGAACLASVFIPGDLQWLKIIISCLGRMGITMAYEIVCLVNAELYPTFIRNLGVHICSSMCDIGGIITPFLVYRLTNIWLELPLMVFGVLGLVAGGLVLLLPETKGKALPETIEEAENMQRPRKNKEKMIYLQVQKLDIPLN
The series is described as follows: Uptake transporter substrate assay. The conditions noted are these: OCT2 UPT; for Maximum fold accumulation over control: maximum seen at 1 µM and 20 min, n = 3.

Series [9] has as its target human MATE2‐K (Homo sapiens, UniProt Q86VL8). The series is described as follows: Uptake transporter substrate assay. The note with it: MATE2‐K UPT; for Maximum fold accumulation over control: maximum seen at 2.5 µM and 20 min, n = 3.
The target in series [10] is CYP2C9 (Homo sapiens, UniProt P11712). The series is described as follows: CYP inhibition in pooled human liver microsomes, diclofenac probe. The note with it: read-out: IC50, No preincubation; CYP2C9, pooled HLMs, n = 3.
Setting [11] is: listed as 6β‐hydroxy‐21‐desacetyl deflazacort.

Sequence of human MATE2‐K (Q86VL8 1-566 isoform Q86VL8-3): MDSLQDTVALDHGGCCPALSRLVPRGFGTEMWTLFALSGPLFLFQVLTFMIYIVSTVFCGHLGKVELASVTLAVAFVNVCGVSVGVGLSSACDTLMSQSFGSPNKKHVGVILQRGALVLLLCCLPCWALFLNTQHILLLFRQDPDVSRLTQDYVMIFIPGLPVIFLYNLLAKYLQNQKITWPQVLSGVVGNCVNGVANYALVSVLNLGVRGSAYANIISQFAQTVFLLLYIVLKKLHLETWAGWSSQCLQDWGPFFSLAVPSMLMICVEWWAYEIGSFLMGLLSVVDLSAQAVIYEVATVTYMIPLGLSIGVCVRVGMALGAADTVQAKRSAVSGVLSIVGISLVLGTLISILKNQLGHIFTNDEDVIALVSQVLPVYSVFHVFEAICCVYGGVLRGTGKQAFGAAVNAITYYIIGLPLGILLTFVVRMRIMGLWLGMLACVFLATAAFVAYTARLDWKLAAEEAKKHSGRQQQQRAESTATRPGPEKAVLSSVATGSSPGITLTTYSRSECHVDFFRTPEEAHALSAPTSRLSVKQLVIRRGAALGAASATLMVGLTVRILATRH
Sequence of human MDR1 (P08183 whole entry): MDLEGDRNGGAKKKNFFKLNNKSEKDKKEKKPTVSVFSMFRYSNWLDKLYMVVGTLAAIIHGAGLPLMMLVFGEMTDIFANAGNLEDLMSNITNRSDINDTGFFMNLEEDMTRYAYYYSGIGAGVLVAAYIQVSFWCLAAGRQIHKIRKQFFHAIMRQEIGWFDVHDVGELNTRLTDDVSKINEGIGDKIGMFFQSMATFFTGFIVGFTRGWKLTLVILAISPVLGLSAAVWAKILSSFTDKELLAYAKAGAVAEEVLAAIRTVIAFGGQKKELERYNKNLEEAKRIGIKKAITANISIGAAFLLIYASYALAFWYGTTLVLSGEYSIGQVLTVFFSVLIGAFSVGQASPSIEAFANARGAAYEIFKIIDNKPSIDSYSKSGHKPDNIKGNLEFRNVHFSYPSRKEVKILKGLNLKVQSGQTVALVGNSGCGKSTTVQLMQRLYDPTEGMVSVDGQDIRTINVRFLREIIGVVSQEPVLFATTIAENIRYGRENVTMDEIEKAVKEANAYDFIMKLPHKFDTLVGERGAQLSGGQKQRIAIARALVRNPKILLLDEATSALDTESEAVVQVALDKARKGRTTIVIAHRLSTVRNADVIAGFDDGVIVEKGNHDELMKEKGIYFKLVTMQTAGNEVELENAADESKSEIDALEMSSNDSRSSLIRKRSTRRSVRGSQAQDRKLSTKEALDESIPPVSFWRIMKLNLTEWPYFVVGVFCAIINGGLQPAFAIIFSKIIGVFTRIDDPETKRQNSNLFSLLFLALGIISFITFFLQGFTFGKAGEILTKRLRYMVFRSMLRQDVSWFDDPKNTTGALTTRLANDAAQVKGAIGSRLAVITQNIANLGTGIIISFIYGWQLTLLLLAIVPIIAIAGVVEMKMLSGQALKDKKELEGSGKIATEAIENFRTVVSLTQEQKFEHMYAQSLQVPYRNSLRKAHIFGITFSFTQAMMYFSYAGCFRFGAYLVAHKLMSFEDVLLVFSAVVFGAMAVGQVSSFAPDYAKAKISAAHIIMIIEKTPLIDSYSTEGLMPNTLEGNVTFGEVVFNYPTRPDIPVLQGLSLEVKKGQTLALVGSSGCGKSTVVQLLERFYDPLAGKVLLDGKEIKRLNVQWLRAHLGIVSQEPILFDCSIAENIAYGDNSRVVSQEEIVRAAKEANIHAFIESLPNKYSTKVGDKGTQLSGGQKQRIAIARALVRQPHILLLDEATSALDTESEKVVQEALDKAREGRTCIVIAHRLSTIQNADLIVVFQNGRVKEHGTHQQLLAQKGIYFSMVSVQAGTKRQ
Sequence of CYP2C19 (P33261 whole entry): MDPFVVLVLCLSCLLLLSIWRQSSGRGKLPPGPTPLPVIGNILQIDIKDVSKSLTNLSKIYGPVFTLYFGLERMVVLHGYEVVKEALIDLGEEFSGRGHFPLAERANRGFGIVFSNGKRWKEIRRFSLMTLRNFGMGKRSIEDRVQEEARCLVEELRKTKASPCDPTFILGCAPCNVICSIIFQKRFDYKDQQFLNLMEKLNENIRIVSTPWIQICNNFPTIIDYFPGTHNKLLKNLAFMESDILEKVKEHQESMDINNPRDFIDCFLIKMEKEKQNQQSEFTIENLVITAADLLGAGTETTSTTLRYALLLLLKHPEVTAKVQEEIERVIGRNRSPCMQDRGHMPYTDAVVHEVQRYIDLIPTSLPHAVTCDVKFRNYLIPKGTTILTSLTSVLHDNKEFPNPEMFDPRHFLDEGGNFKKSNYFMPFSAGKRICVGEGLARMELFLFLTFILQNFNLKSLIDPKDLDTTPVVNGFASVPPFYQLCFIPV
Sequence of CYP2B6 (P20813 whole entry): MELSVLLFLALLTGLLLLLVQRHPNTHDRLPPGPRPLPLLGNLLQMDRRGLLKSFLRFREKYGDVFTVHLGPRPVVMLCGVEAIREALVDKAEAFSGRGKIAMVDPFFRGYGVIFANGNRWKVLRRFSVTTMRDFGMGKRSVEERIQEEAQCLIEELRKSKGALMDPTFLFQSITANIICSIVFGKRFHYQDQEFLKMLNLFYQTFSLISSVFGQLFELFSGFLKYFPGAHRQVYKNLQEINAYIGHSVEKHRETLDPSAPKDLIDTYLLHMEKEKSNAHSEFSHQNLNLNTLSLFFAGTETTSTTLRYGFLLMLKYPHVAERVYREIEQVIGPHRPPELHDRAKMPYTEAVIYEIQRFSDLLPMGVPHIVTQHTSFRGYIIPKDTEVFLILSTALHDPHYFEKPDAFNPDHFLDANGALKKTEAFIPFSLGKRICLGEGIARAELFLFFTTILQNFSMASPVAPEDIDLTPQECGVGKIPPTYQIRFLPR
Sequence of CYP2C9 (P11712 whole entry): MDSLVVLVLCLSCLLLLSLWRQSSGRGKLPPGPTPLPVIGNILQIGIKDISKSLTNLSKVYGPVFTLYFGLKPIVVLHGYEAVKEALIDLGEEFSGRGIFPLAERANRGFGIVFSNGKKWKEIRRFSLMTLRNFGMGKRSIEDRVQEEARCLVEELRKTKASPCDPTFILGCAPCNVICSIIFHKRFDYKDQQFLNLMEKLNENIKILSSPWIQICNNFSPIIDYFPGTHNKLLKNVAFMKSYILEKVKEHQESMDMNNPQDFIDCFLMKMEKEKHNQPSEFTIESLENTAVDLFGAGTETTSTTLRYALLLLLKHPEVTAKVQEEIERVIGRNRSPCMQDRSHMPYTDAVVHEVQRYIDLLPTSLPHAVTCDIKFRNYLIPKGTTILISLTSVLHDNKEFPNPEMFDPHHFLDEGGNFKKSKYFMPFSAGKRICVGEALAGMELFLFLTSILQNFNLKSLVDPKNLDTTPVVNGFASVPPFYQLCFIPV
Sequence of CYP2C8 (P10632 whole entry): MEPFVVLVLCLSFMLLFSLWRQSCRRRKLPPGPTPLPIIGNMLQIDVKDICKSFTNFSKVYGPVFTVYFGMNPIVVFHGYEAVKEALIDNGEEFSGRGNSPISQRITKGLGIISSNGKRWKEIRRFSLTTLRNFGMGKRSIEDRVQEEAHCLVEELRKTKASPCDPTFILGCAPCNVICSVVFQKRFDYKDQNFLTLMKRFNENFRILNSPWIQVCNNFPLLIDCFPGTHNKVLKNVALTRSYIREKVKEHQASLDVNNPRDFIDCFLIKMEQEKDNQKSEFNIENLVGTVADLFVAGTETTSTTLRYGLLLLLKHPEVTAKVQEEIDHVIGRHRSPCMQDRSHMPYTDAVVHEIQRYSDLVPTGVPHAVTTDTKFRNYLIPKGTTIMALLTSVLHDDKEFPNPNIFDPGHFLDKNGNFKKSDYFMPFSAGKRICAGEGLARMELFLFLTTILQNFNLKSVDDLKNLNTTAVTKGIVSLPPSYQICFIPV
Sequence of CYP1A2 (P05177 whole entry): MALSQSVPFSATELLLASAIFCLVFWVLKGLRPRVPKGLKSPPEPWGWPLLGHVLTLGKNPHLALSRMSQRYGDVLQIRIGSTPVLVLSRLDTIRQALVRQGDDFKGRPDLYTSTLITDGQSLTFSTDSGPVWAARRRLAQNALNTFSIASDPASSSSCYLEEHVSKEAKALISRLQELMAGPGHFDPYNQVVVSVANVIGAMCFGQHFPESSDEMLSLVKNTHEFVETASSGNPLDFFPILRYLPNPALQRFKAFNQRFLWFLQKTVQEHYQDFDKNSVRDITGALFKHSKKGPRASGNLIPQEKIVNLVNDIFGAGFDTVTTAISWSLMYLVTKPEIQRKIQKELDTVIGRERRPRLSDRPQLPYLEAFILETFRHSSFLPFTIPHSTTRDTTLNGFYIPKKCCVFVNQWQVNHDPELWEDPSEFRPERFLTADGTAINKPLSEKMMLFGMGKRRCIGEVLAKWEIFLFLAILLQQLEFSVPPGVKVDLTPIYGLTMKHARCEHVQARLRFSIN

`CC1=N[C@]2(C(=O)CO)[C@@H](C[C@H]3[C@@H]4C[C@@H](O)C5=CC(=O)C=C[C@]5(C)[C@H]4[C@@H](O)C[C@@]32C)O1` [6β‐OH‐21‐desDFZ, 6β‐Hydroxy‐21‐desacetyl deflazacort]: the “estimated plasma Cmax/IC50 ratio” value in series [1] (CYP2C19, Cmax 0.34 µM, assumed 100% free) is 0.007. Also, the IC50 was around 50 µM in [1] (read-out: IC50, No preincubation, CYP2C19, pooled HLMs, n = 3); above 50 µM in series [3]; above 50 µM in [5]; above 50 µM in series [6]; above 50 µM in series [10]. Moreover, the Substrate potential result in series [2] is recorded as “not a substrate”; in series [2] (setting [11]), “No”; in [4], “not a substrate”; in series [4] (setting [11]) it was “No”; in [7], “not a substrate”; in series [7] (setting [11]) it was “No”. The Substrate potential result is reported as “not a substrate” in series [8], “No” in series [8] (setting [11]), “not a substrate” in series [9] and “No” in [9] (setting [11]). Besides, the “Maximum fold accumulation over control” value in [2] is 1.47 at 1 µM and 20 min fold; in [8] it was 1.32 at 1 µM and 20 min fold; in series [9] it was 1.08 at 2.5 µM and 20 min fold. In addition, the “Maximum net ER” value in [4] is 0.17 at 2.5 µM; in series [7], 0.59 at 1 and 5 µM.

As for “[2’-^14C]-6β-hydroxy-21-desacetyl-deflazacort [^14C‐6β‐OH‐21‐desDFZ]”, the “Maximum fold accumulation over control” value in series [2], in [8] and in series [9] was below 2 fold throughout. In addition, the entries for the “Maximum net ER” value in [4] and in series [7] were 0.17 and 0.59, respectively.

The IC50 is the midpoint of a concentration-inhibition curve.
